In BigSolDB 2.1:

Cc1cc(C)[nH]n1
solubility (mole fraction)
Conditions	in acetone	in acetonitrile	in ethanol	in ethyl acetate	in isopropanol	in methanol	in n-butanol	in n-propanol	in toluene
283.15 K	0.0625	0.0276	0.12	0.0508	0.115	0.107	0.133	0.123	0.0339
285.65 K	0.0691	0.0312	0.127	0.0578	0.121	0.112	0.14	0.13	0.0382
288.15 K	0.0757	0.0359	0.133	0.0663	0.128	0.118	0.149	0.137	0.045
290.65 K	0.0838	0.0408	0.14	0.077	0.134	0.123	0.158	0.145	0.0517
293.15 K	0.0935	0.0455	0.148	0.0881	0.142	0.131	0.166	0.152	0.0593
295.65 K	0.105	0.0508	0.155	0.1	0.149	0.137	0.176	0.16	0.0677
298.15 K	0.116	0.0568	0.163	0.113	0.157	0.143	0.187	0.167	0.0769
300.65 K	0.129	0.0635	0.171	0.128	0.164	0.15	0.199	0.175	0.0863
303.15 K	0.143	0.0722	0.179	0.144	0.171	0.158	0.211	0.184	0.0979
305.65 K	0.16	0.0806	0.187	0.161	0.18	0.165	0.224	0.194	0.114
308.15 K	0.175	0.0916	0.196	0.18	0.19	0.173	0.237	0.203	0.133
310.65 K	0.194	0.102	0.205	0.199	0.199	0.18	0.251	0.213	0.151
313.15 K	0.213	0.116	0.217	0.223	0.211	0.19	0.265	0.226	0.171
